Assay results taken from patent publication US20240238299A1, “USE OF PYRROLOPYRIMIDINE COMPOUND” (GUANGZHOU JOYO PHARMATECH CO., LTD, priority 2021, published 2024).

Experiments:
[1] = test system: MOG35-55-induced experimental autoimmune encephalomyelitis (EAE) mouse model; assay: MOG35-55-induced EAE mouse model, clinical scoring and incidence; assay type: in vivo, C57BL/6 mice; conditions: for reduction rate in AUC for clinical scoring: 14 days, vs vehicle control
rat primary astrocytes = assay: Cell viability (CCK-8) in NMO-IgG induced astrocyte injury model; assay type: cell-based; conditions: NMO-IgG 250 μg/mL, 24 h
[2] = test system: IL-6 secretion by astrocytes; assay: IL-6 release caused by NMO-IgG in astrocytes (ELISA); assay type: cell-based, rat; conditions: NMO-IgG 250 μg/mL, 24 h; for IL-6 inhibition rate, Mean: 5 μM
Method: The compound was dissolved in DMSO to prepare a compound stock solution. The compound stock solution was then serially diluted in a gradient using DMSO to prepare a series of 1000× test compound solutions. These 1000× test compound solutions were further diluted at a ratio of 1:100 with cell culture medium to prepare a series of 10× test compound solutions. Finally, according to the experimental well plate loading design, a corresponding volume of 10× solution was added to each well, with two duplicate wells for each drug concentration. In the experiment, the test solution (i.e., 1× solution) had varying final concentrations of compound I, specifically 20, 2.222, 0.247, and 0.027 μM; the concentration of Meprednisone compound (i.e., 1× solution) was 30 μM; the concentration of BAY 11-7082 (i.e., 1× solution) was 5 μM; the final DMSO concentration in each well was 0.1%. DMSO without compound was added to blank control wells, with a final concentration of 0.1%.
1) Extraction and separation of primary astrocytes: A mixed glial cell culture medium was prepared from the cerebral cortex of 1-day-old newborn rats. After euthanizing the newborn rats, they were immersed in alcohol. Their skin was cut, the brains were removed, and the cerebral cortex was isolated. The tissues were then ground to remove the connective tissue, and the mixed glial cells were sieved through a 70 µm cell strainer. These cells were then seeded into a cell culture plate coated with poly-L-lysine. The culture medium was DMEM, containing 10% heat-inactivated fetal bovine serum, 100 U/mL penicillin, and […]. After about 12 days of in vitro culture, the cells reached confluence. Microglia, endothelial cells, and oligodendrocytes were removed from the mixed glial cells by vibratory shaking. […] 2) Culture of astrocytes: The isolated astrocytes were cultured in a 37° C., 5% CO2 incubator. The culture medium was changed every 3 to 4 days. The astrocytes could also be digested using trypsin (0.25%) and then frozen in liquid nitrogen for future use.
Human NMO-IgG was isolated from a sterile-filtered serum pool (AQP4-IgG-positive NMOSD) using a HiTrap Protein G-HP column (GE Healthcare). The serum samples were diluted at a ratio of 1:1 with binding buffer, and after packing the purification column with binding buffer, the serum sample was added. The column was subsequently washed with binding buffer again and the antibodies were eluted according to the instructions. Finally, the antibodies were concentrated on an Amicon Ultra-4 centrifugal filter (millipore) with a 10,000 MW cutoff. The concentrated immunoglobulin was filtered through a 0.22 µm filter. The protein concentration of the concentrate was determined using the BCA method and stored at −80° C. The total IgG extracted from the serum of NMOSD patients was NMO-IgG (containing AQP4-IgG), and the cells were stimulated at a protein concentration of 250 μg/mL during the experiment.
Astrocytes were cultured or revived until day 2 and then seeded into a 24-well plate at a density of 1.5×10^5 cells per well. The test compounds, including compound I, Meprednisone, and BAY11-7082, were pre-incubated with the cells for 30 minutes at the concentrations previously described. Subsequently, in each group, the cells continued to be stimulated with NMO-IgG at a final working concentration of 250 μg/mL for 24 hours to induce astrocyte damage. Normal human Control-IgG (CON-IgG) stimulation at a final working concentration of 250 μg/mL was used as a negative control.
After 24 hours of NMO-IgG stimulation of cells, the supernatant was collected. IL-6 levels were detected using an enzyme-linked immunosorbent assay (ELISA) following the instructions of the IL-6 ELISA kit (R&D Systems, USA, #RD6000B). The absorbance (OD values) of the samples in each group was measured, and the concentration of IL-6 in each experimental group was calculated through standard curve fitting. […]

## CCCCCCCCc1ccc(CCC(N)(CO)CO)cc1 [Fingolimod, reference compound]
[1]; 0.5 mg/kg QD oral
  reduction rate in AUC for clinical scoring: 49%
[1]; G4, 0.5 mg/kg QD oral, day 0
  EAE clinical scoring, Mean: 0.00
  incidence of EAE: 0%
[1]; G4, 0.5 mg/kg QD oral, day 2
  EAE clinical scoring, Mean: 0.00
  incidence of EAE: 0%
[1]; G4, 0.5 mg/kg QD oral, day 4
  EAE clinical scoring, Mean: 0.00
  incidence of EAE: 0%
[1]; G4, 0.5 mg/kg QD oral, day 7
  EAE clinical scoring, Mean: 0.00
  incidence of EAE: 0%
[1]; G4, 0.5 mg/kg QD oral, day 9
  EAE clinical scoring, Mean: 0.00
  incidence of EAE: 0%
[1]; G4, 0.5 mg/kg QD oral, day 11
  EAE clinical scoring, Mean: 0.00
  incidence of EAE: 0%
[1]; G4, 0.5 mg/kg QD oral, day 12
  EAE clinical scoring, Mean: 0.00
  incidence of EAE: 0%
[1]; G4, 0.5 mg/kg QD oral, day 13
  EAE clinical scoring, Mean: 0.20
  incidence of EAE: 20%
[1]; G4, 0.5 mg/kg QD oral, day 14
  EAE clinical scoring, Mean: 0.70
  incidence of EAE: 60%
[1]; G4, 0.5 mg/kg QD oral, day 15
  EAE clinical scoring, Mean: 1.30
  incidence of EAE: 80%
[1]; G4, 0.5 mg/kg QD oral, day 16
  EAE clinical scoring, Mean: 1.70
  incidence of EAE: 80%
[1]; G4, 0.5 mg/kg QD oral, day 17
  EAE clinical scoring, Mean: 1.70
  incidence of EAE: 80%
[1]; G4, 0.5 mg/kg QD oral, day 18
  EAE clinical scoring, Mean: 1.40
  incidence of EAE: 70%
[1]; G4, 0.5 mg/kg QD oral, day 19
  EAE clinical scoring, Mean: 1.30
  incidence of EAE: 70%
[1]; G4, 0.5 mg/kg QD oral, day 20
  EAE clinical scoring, Mean: 1.00
  incidence of EAE: 60%
[1]; G4, 0.5 mg/kg QD oral, day 21
  EAE clinical scoring, Mean: 0.90
  incidence of EAE: 50%
[1]; G4, 0.5 mg/kg QD oral, day 22
  EAE clinical scoring, Mean: 0.80
  incidence of EAE: 50%
[1]; G4, 0.5 mg/kg QD oral, day 23
  EAE clinical scoring, Mean: 0.70
  incidence of EAE: 40%
[1]; G4, 0.5 mg/kg QD oral, day 24
  EAE clinical scoring, Mean: 0.50
  incidence of EAE: 20%
[1]; G4, 0.5 mg/kg QD oral, day 25
  EAE clinical scoring, Mean: 0.50
  incidence of EAE: 20%
[1]; G4, 0.5 mg/kg QD oral, day 26
  EAE clinical scoring, Mean: 0.50
  incidence of EAE: 20%
[1]; G4, 0.5 mg/kg QD oral, day 27
  EAE clinical scoring, Mean: 0.50
  incidence of EAE: 20%

## Cc1ccc(S(=O)(=O)/C=C/C#N)cc1 [BAY 11-7082, BAY11-7082, reference compound]
Rat primary astrocytes; 5 μM
  Cell viability percentage, Mean: 39.5%
[2]
  IL-6 inhibition rate, Mean: 104.2%
[2]; listed as BAY compound
  IL-6 inhibition rate, Mean: approximately 104.2%

## C[C@@H]1C[C@H]2[C@@H]3CCC4=CC(=O)C=C[C@]4(C)[C@@]3(F)[C@@H](O)C[C@]2(C)[C@@]1(O)C(=O)CO [Dexamethasone, reference compound]
[1]; 1 mg/kg QD oral
  reduction rate in AUC for clinical scoring: 65%
[1]; G3, 1 mg/kg PO QD, day 0
  incidence of EAE: 0%
[1]; G3, 1 mg/kg PO QD, day 2
  incidence of EAE: 0%
[1]; G3, 1 mg/kg PO QD, day 4
  incidence of EAE: 0%
[1]; G3, 1 mg/kg PO QD, day 7
  incidence of EAE: 0%
[1]; G3, 1 mg/kg PO QD, day 9
  incidence of EAE: 0%
[1]; G3, 1 mg/kg PO QD, day 11
  incidence of EAE: 0%
[1]; G3, 1 mg/kg PO QD, day 12
  incidence of EAE: 10%
[1]; G3, 1 mg/kg PO QD, day 13
  incidence of EAE: 20%
[1]; G3, 1 mg/kg PO QD, day 14
  incidence of EAE: 60%
[1]; G3, 1 mg/kg PO QD, day 15
  incidence of EAE: 60%
[1]; G3, 1 mg/kg PO QD, day 16
  incidence of EAE: 60%
[1]; G3, 1 mg/kg PO QD, day 17
  incidence of EAE: 50%
[1]; G3, 1 mg/kg PO QD, day 18
  incidence of EAE: 50%
[1]; G3, 1 mg/kg PO QD, day 19
  incidence of EAE: 50%
[1]; G3, 1 mg/kg PO QD, day 20
  incidence of EAE: 50%
[1]; G3, 1 mg/kg PO QD, day 21
  incidence of EAE: 50%
[1]; G3, 1 mg/kg PO QD, day 22
  incidence of EAE: 40%
[1]; G3, 1 mg/kg PO QD, day 23
  incidence of EAE: 30%
[1]; G3, 1 mg/kg PO QD, day 24
  incidence of EAE: 30%
[1]; G3, 1 mg/kg PO QD, day 25
  incidence of EAE: 30%
[1]; G3, 1 mg/kg PO QD, day 26
  incidence of EAE: 30%
[1]; G3, 1 mg/kg PO QD, day 27
  incidence of EAE: 30%
[1]; G3, 1 mg/kg QD oral, day 0
  EAE clinical scoring, Mean: 0.00
[1]; G3, 1 mg/kg QD oral, day 2
  EAE clinical scoring, Mean: 0.00
[1]; G3, 1 mg/kg QD oral, day 4
  EAE clinical scoring, Mean: 0.00
[1]; G3, 1 mg/kg QD oral, day 7
  EAE clinical scoring, Mean: 0.00
[1]; G3, 1 mg/kg QD oral, day 9
  EAE clinical scoring, Mean: 0.00
[1]; G3, 1 mg/kg QD oral, day 11
  EAE clinical scoring, Mean: 0.00
[1]; G3, 1 mg/kg QD oral, day 12
  EAE clinical scoring, Mean: 0.10
[1]; G3, 1 mg/kg QD oral, day 13
  EAE clinical scoring, Mean: 0.20
[1]; G3, 1 mg/kg QD oral, day 14
  EAE clinical scoring, Mean: 0.70
[1]; G3, 1 mg/kg QD oral, day 15
  EAE clinical scoring, Mean: 1.30
[1]; G3, 1 mg/kg QD oral, day 16
  EAE clinical scoring, Mean: 1.70
[1]; G3, 1 mg/kg QD oral, day 17
  EAE clinical scoring, Mean: 1.70
[1]; G3, 1 mg/kg QD oral, day 18
  EAE clinical scoring, Mean: 1.40
[1]; G3, 1 mg/kg QD oral, day 19
  EAE clinical scoring, Mean: 1.30
[1]; G3, 1 mg/kg QD oral, day 20
  EAE clinical scoring, Mean: 1.00
[1]; G3, 1 mg/kg QD oral, day 21
  EAE clinical scoring, Mean: 0.90
[1]; G3, 1 mg/kg QD oral, day 22
  EAE clinical scoring, Mean: 0.80
[1]; G3, 1 mg/kg QD oral, day 23
  EAE clinical scoring, Mean: 0.70
[1]; G3, 1 mg/kg QD oral, day 24
  EAE clinical scoring, Mean: 0.30
[1]; G3, 1 mg/kg QD oral, day 25
  EAE clinical scoring, Mean: 0.30
[1]; G3, 1 mg/kg QD oral, day 26
  EAE clinical scoring, Mean: 0.30
[1]; G3, 1 mg/kg QD oral, day 27
  EAE clinical scoring, Mean: 0.30

## C[C@H]1C[C@H]2[C@@H]3CCC4=CC(=O)C=C[C@]4(C)[C@H]3C(=O)C[C@]2(C)[C@@]1(O)C(=O)CO [Meprednisone, reference compound]
Rat primary astrocytes; Rattus norvegicus, Astrocyte, 30 μM, read-out: Cell viability percentage, Mean
  viability at 30 µM: 81.7%
[2]; Rattus norvegicus, Astrocyte, 30 μM, read-out: IL-6 inhibition rate, Mean
  inhibition at 30 µM: ~74.8%
